The record followed here is US20100068252A1, “METHOD FOR PREPARING POLYMERIC MATRICES BY RADIATION IN THE PRESENCE OF SENSITIVE PHARMACEUTICAL COMPOUNDS” (DSM IP ASSETS B.V., priority 2006, published 2010).

This data set in a line: Phase (ii) testing: UV irradiation of drug with photoinitiator (radical generation), drug recovery by HPLC. As to conditions: sensitive = degrades more than 5% with radical generation at 12 J/cm^2. It is filed as physicochemical. An excerpt:
As used herein, the term sensitive pharmaceutical compounds is to be interpreted as compounds that degrade for more than 5% in an environment with radical generation at 12 J/cm^2 irradiation. More in particular, the pharmaceutical can be sensitive during polymerisation that can be initiated with UV or visible light (200-700 nm) or with electron beam or gamma radiation, and without or up to 10% radical generating species (initiator) present. If an initiator is present, it is preferably about 1-10 wt % of a photoinitiator. In addition to photoinitiators, the system may comprise also a thermal initiator (for example peroxide and/or redox initiators). Preferably a radiation sensitive (photo)initiator is used, for example a Norrish Type I or Type II initiator. It is possible to work in the absence of these radical generating species where electron beam or gamma radiation is used or in the case where unsaturated compounds (one compound whose double bond is electron rich and another compound whose double bond is electron poor) react with each other via a donor-acceptor complex to form a polymer.
Potential degradation can be measured by dissolving 100 ppm (0.1 g/l) pharmaceutical compound in a suitable solvent in a quartz, glass or HPLC vessel. One series of vessels is used as such. In a second series of vessels, the one or more initiators, preferably those used in the polymerization mixture, are added in the same amount as the pharmaceutical compound. Next, the vessels are subjected to irradiation at 2 and 12 J/cm^2. As an example, UV radiation can be performed with a lab UV source Bluepoint 2, equipped with a D-bulb D65 and directed onto the sample by a UV light guide. The output from the guide is 200 mW/cm^2 (200 mJ/cm^2 per second) as measured with a Solascope 1 UV spectrometer. A dose of 2 and 12 J/cm^2 was achieved by irradiating 10 and 60 seconds, respectively. The choice of irradiation system could be governed by the applications or processing considerations that typically influence hardware use in a laboratory, hospital or manufacturing environment. […]
The recovery could be analysed by HPLC. […] UV spectra of the drugs before and after UV irradiation (at both 2 and 12 J/cm^2) had identical shapes, meaning that the HPLC method could be used to quantitatively measure changes in drug concentrations. Any degradation would be calculated as: minus the percentage of recovered API.
UV irradiation of drug-containing solutions (see below) was performed with a lab UV source Dr. Hoenle Bluepoint 2, equipped with a D-bulb, directed onto the (open) HPLC vials (2 ml) by a UV light guide (200 mW/cm^2; 200 mJ/cm^2 per second as measured with Solascope 1 UV emission spectrometer). […]
For `CCCCc1oc2ccccc2c1C(=O)c1cc(I)c(OCCN(CC)CC)c(I)c1` [Amiodarone ®, Amiodarone], the “radical sensitivity in the current testing method” value (“radical sensitivity” below) is given as “radical sensitive”.

`COc1cc2nc(N3CCN(C(=O)c4ccco4)CC3)nc(N)c2cc1OC` [Prazosin ®, Prazosin]: the “radical sensitivity” value is recorded as “radical sensitive”.

With `COc1cc2nc(N3CCN(C(=O)C4CCCO4)CC3)nc(N)c2cc1OC` (stereo not shown) [Terazosin ®, Terazosin], the “radical sensitivity” value is “radical sensitive”.

As to `O=C(N[C@H](CO)[C@H](O)c1ccc([N+](=O)[O-])cc1)C(Cl)Cl` [Chloroamphenicol], the “radical sensitivity” value is on record as “radical sensitive”.
